The values that follow are results of earlier work, collected in patent US20240156825A1, “USE OF SELECTIVE VEGFR2 AND FGFR1 INHIBITORS” (Fountain Therapeutics Inc., priority 2022, published 2024).

Like-named read-outs stand apart in the source and are kept apart here.

One data set has as its target VEGFR2 (Homo sapiens, UniProt P35968). To be noted: reported IC50 to VEGFR2, read-out: VEGFR2 IC50_μM, cited from earlier work.
The test system of a further data set is any gene target. The conditions noted are these: next lowest IC50 value to any gene target, read-out: Min IC50_μM, cited from earlier work.
[1] abbreviates: Table 3, selective inhibitors of VEGFR2.

Chain of VEGFR2 (P35968 20-1356, species assumed): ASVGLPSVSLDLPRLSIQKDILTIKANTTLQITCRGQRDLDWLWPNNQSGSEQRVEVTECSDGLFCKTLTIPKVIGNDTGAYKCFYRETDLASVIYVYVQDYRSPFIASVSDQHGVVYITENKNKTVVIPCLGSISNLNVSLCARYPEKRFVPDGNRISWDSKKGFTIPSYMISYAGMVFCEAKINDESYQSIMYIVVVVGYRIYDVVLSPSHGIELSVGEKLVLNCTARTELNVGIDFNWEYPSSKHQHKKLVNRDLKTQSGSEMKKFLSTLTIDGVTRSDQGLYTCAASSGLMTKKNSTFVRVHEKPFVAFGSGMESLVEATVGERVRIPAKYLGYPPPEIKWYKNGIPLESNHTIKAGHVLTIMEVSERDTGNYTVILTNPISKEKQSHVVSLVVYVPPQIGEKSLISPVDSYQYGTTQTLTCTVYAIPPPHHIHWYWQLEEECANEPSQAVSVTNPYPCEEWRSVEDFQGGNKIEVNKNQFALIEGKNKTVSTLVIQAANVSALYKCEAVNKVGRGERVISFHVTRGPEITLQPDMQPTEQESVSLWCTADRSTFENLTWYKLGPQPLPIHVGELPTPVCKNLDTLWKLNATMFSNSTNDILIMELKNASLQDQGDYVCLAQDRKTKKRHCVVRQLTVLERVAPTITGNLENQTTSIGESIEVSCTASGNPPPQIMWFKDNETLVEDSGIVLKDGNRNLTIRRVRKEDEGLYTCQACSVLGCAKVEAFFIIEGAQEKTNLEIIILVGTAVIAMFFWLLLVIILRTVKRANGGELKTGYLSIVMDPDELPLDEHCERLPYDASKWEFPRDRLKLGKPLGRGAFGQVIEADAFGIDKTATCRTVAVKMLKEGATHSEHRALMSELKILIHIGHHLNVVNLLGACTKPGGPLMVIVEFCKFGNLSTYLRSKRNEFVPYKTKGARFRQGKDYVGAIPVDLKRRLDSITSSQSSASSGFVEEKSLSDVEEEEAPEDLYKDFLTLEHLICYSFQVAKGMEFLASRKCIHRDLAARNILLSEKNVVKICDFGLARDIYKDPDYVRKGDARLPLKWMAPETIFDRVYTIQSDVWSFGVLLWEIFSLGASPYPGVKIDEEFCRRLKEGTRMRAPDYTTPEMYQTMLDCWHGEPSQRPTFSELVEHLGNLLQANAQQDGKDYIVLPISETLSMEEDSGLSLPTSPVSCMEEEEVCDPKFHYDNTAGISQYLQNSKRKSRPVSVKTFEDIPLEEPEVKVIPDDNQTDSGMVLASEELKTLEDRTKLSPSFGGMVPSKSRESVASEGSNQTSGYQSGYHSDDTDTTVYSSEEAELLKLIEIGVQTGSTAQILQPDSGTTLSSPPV

For the compound `CNC(=O)Nc1ccc(CNc2ncsc2C(=O)Nc2ccc3c(c2)OC(F)(F)O3)cn1` [compound 44442418], the IC50 is 3 nM on VEGFR2 and 5 nM with any gene target.
Turning to `COc1cc2c(Nc3ccc(Cl)c(Cl)c3)ncnc2cc1OCC1CN(CCCCCC#N)CCO1` (stereo not drawn) [compound 57802611], the IC50 on VEGFR2 (setting [1]) and with any gene target (Table 3) was 50 nM in each case.
`COc1cc2c(Nc3ccc(Cl)c(Cl)c3)ncnc2cc1OCC1CN(S(C)(=O)=O)CCCO1` (stereo not drawn) [compound 57802556]: the IC50 on VEGFR2 (setting [1]) and in the data set with any gene target (Table 3) was 50 nM each time.
As to `C[C@@H]1CN(C(=O)CCCC(=O)N2C[C@@H](C)c3c2cc(O)c2ccccc32)c2cc(O)c3ccccc3c21` [compound 155536201], the IC50 on VEGFR2 is 330 nM; in the data set on any gene target, 540 nM.
Regarding `Nc1c(-c2ccc(F)cc2)c(-c2ccncc2)nn1-c1c(Cl)cc(Cl)cc1Cl` [compound 56924694], the IC50 is 29 nM at VEGFR2 and 31 nM in the data set with any gene target.
In the case of `COc1cc2c(Nc3ccc(Br)c(C)c3)ncnc2cc1OCC1CN(C)CCO1` (stereo not drawn) [compound 57802842], the IC50 on VEGFR2 (setting [1]) and in the data set with any gene target (Table 3) was 50 nM in each case.
Regarding `COc1cc2c(Nc3ccc(Br)c(Cl)c3F)ncnc2cc1OCC1CN(C)C(C)(C)CO1` (stereo not drawn) [compound 57802747], the IC50 at VEGFR2 and in the data set on any gene target was 50 nM each time.
For the compound `Oc1cc(O)c2cc(O)c(-c3cc(O)c(O)c(O)c3)[o+]c2c1` [compound 68245], the IC50 at VEGFR2 was 5.09 nM; in the data set on any gene target, 6.27 nM.
As to `COc1cc2c(Nc3ccc(C)c(Cl)c3Cl)ncnc2cc1OCC1CN(C)CCO1` (stereo not drawn) [compound 57802779], the IC50 at VEGFR2 and in the data set on any gene target was 50 nM throughout.
On to `Cc1ccc(NC(=O)C2(C(=O)Nc3ccc(Nc4ncc(F)c(-c5cc(F)c6nc(C)n(C(C)C)c6c5)n4)cc3)CC2)cc1` [compound 155517777], for which the IC50 at VEGFR2 (setting [1]) and in the data set with any gene target (Table 3) was 46 nM in each case.
As for `COc1cc2c(Nc3ccc(-c4nc5ccccc5s4)cc3)ncnc2cc1OCCCN1CCN(C)CC1` [compound 46225612], the IC50 is 12 nM at VEGFR2 and 14 nM in the data set on any gene target.
For the compound `COc1cc2c(Nc3ccc(Cl)c(Cl)c3)ncnc2cc1OC[C@@H]1CO[C@H]2[C@@H]1OC[C@@H]2OC` [compound 66955051], the IC50 at VEGFR2 (setting [1]) and with any gene target (Table 3) was 50 nM throughout.
On to `COc1cc2c(Nc3ccc(Br)c(F)c3F)ncnc2cc1OCC1CN(C)CCO1` (stereo not drawn) [compound 57802560], for which the IC50 on VEGFR2 (setting [1]) and with any gene target (Table 3) was 50 nM in each case.
In the case of `COc1cc2c(Nc3ccc(Cl)cc3F)ncnc2cc1OCCCN1CCOCC1` [compound 5329020], the IC50 at VEGFR2 is 9 nM; in the data set on any gene target, 50 nM.
Take `COc1cc2c(Nc3cc(O)c(Cl)cc3F)ncnc2cc1OCC1CCN(C)CC1` [compound 73357210]: the IC50 at VEGFR2 (setting [1]) and with any gene target (Table 3) was 3 nM throughout.
`CC(C)(Nc1nc(NO)nc(Nc2ccc3ncsc3c2)n1)c1ccccc1` [compound 10249989]: the IC50 on VEGFR2 was 40 nM; in the data set on any gene target it was 420 nM.
For the compound `COc1cc2c(Nc3ccc(Br)c(Cl)c3Cl)ncnc2cc1OC[C@@H]1CO[C@H]2[C@@H]1OC[C@@H]2OC` [compound 66954887], the IC50 on VEGFR2 (setting [1]) and in the data set with any gene target (Table 3) was 50 nM each time.
Turning to `COc1cc2c(Nc3ccc(Br)c(Cl)c3Cl)ncnc2cc1OC[C@H]1CN2CCCC[C@H]2CO1` [compound 134150926], the IC50 at VEGFR2 (setting [1]) and with any gene target (Table 3) was 50 nM throughout.
In the case of `COc1cc2c(Nc3ccc(Br)c(Cl)c3Cl)ncnc2cc1OC[C@@H]1CN2CCC[C@H]2CO1` [compound 57802722], the IC50 at VEGFR2 and in the data set on any gene target was 50 nM each time.
As to `COc1cc2c(Nc3cc(Cl)c(Br)cc3F)ncnc2cc1OC[C@@H]1CN2CCC[C@H]2CO1` [compound 66839071], the IC50 at VEGFR2 (setting [1]) and in the data set on any gene target (Table 3) was 50 nM each time.
As to `O=C(Nc1ccc(Oc2ncnc3sc4c(c23)CCCC4)cc1)Nc1cccc(Br)c1` [compound 122193773], the IC50 on VEGFR2 was 11 nM; in the data set with any gene target, 17 nM.
In the case of `CSc1cn2c(-c3cn[nH]c3)cnc2c(Nc2cc(C)ns2)n1` [compound 25094210], the results for the IC50 on VEGFR2 and with any gene target were 36 nM and 167 nM, respectively.
`Cc1cn2c(-c3cn[nH]c3)cnc2c(Nc2cc(CN3CCCCC3)ns2)n1` [compound 25144294]: the IC50 at VEGFR2 is 4 nM; with any gene target it was 12 nM.
With `Clc1cccc(Nc2cncc(-c3cncc(NCCCn4cccn4)c3)n2)c1` [compound 5330391], the IC50 on VEGFR2 was 93.3 nM; with any gene target it was 326 nM.
`COc1cc2c(Nc3ccc(Cl)c(Cl)c3)ncnc2cc1OCC1CN(C(=O)c2c(C)noc2C)CCO1` (stereo not drawn) [compound 57802871]: the IC50 at VEGFR2 (setting [1]) and in the data set with any gene target (Table 3) was 50 nM each time.
In the case of `COc1cc2c(Nc3ccc(Cl)c(Cl)c3F)ncnc2cc1OC[C@@H]1CN(C)CC(=O)N1` [compound 57802639], the IC50 on VEGFR2 (setting [1]) and in the data set on any gene target (Table 3) was 50 nM in each case.
With `COc1cc2c(Nc3ccc(Cl)c(Cl)c3)ncnc2cc1OCC1CN(C(=NC#N)N2CCCCC2)CCO1` (stereo not drawn) [compound 57802736], the IC50 on VEGFR2 and in the data set with any gene target was 50 nM each time.
As for `COc1cc2c(Nc3ccc(Cl)c(Cl)c3)ncnc2cc1OCC1CN(S(C)(=O)=O)CCO1` (stereo not drawn) [compound 57802901], the IC50 on VEGFR2 (setting [1]) and in the data set on any gene target (Table 3) was 50 nM in each case.
Take `COc1cc2c(Nc3ccc(Cl)c(Cl)c3)ncnc2cc1OCC1CC1` [compound 57802643]: the IC50 on VEGFR2 and in the data set with any gene target was 50 nM throughout.
As for `COCCNC(=O)c1cccc2cc(Oc3ncnc4cc(OC)c(OC)cc34)ccc12` [compound 24823252], the IC50 on VEGFR2 is 314 nM; with any gene target, 385 nM.
On to `COc1cc2c(Nc3ccc(Cl)c(Cl)c3)ncnc2cc1OCC1CN(C(=NC#N)N2CCCC2)CCO1` (stereo not drawn) [compound 57802904], for which the IC50 on VEGFR2 (setting [1]) and in the data set with any gene target (Table 3) was 50 nM each time.
`COc1cc2c(Nc3ccc(Br)c(Cl)c3F)ncnc2cc1OC[C@@H]1CN2CCC[C@H]2CO1` [compound 57802905]: the IC50 on VEGFR2 (setting [1]) and with any gene target (Table 3) was 50 nM in each case.
For the compound `c1ccc(-c2cnn3cc(-c4ccc(OCCN5CCOCC5)cc4)cnc23)cc1` [compound 5329447], the results for the IC50 on VEGFR2 and in the data set with any gene target were 9 nM and 32 nM, respectively.
On to `COc1cc2c(Nc3cccc(Cl)c3F)ncnc2cc1OCC1CN(C(N)=NC#N)CCCO1` (stereo not drawn) [compound 134142438], for which the IC50 on VEGFR2 (setting [1]) and in the data set with any gene target (Table 3) was 50 nM throughout.
As for `COc1cc2ncnc(Nc3ccc(Br)cc3)c2cc1OCCCCC(=O)NO` [compound 127028028], the results for the IC50 on VEGFR2 and in the data set on any gene target were 59 nM and 68 nM, respectively.
With `COc1cc2c(Nc3cc(Cl)c(Cl)cc3F)ncnc2cc1OCC1CN(C)CCO1` (stereo not drawn) [compound 57802547], the IC50 on VEGFR2 (setting [1]) and in the data set on any gene target (Table 3) was 50 nM throughout.
As for `CC1(C)CC(NC(=O)c2cccc(-c3cc4nccc(Nc5cccc(O)c5)n4n3)c2)CC(C)(C)N1[O]` [compound 46179972], the results for the IC50 on VEGFR2 and in the data set with any gene target were 3.3 nM and 5 nM, respectively.
For `COc1cc2c(Oc3ccc(NC(=O)C4(C(=O)Nc5ccc(F)cc5)CC4)cc3F)ccnc2cc1OCCCC(=O)NO` [compound 71466525], the figures for the IC50 at VEGFR2 and in the data set with any gene target were 12 nM and 19 nM, respectively.
`C[C@@H](Nc1ncnc2[nH]c(-c3ccc(CN4CCN(CCCCC(=O)NO)CC4)cc3)cc12)c1ccccc1` [compound 24900441]: the IC50 at VEGFR2 and in the data set on any gene target was 100 nM throughout.
